Test results: PubChem BioAssay (NCI)
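Protocol summary: plate cells (96-well), add compound at 5 concentrations, incubate 48 h, interpolate endpoints linearly. TGI: concentration producing complete growth inhibition.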

Legend:
Assay in all cases: NCI-60 cell line screen, 48 h
MDA-MB-435 = tested on: MDA-MB-435
UACC-62 melanoma = tested on: UACC-62 melanoma
LOX IMVI melanoma = tested on: LOX IMVI melanoma
SW-620 colon = tested on: SW-620 colon
COLO 205 colon = tested on: COLO 205 colon
T-47D breast = tested on: T-47D breast
SNB-75 CNS = tested on: SNB-75 CNS
SF-539 CNS = tested on: SF-539 CNS
HOP-92 NSCLC = tested on: HOP-92 NSCLC
DMS 114 small cell lung = tested on: DMS 114 small cell lung
M19-MEL melanoma = tested on: M19-MEL melanoma
LXFL 529 NSCLC = tested on: LXFL 529 NSCLC
KM20L2 colon = tested on: KM20L2 colon
DMS 273 small cell lung = tested on: DMS 273 small cell lung

Structure (SMILES) | TGI (MDA-MB-435) [µM] | TGI (UACC-62 melanoma) [µM] | TGI (LOX IMVI melanoma) [µM] | TGI (SW-620 colon) [µM] | TGI (COLO 205 colon) [µM] | TGI (T-47D breast) [µM] | TGI (SNB-75 CNS) [µM] | TGI (SF-539 CNS) [µM] | TGI (HOP-92 NSCLC) [µM] | TGI (DMS 114 small cell lung) [µM] | TGI (M19-MEL melanoma) [µM] | TGI (LXFL 529 NSCLC) [µM] | TGI (KM20L2 colon) [µM] | TGI (DMS 273 small cell lung) [µM]
O=C(CN(c1ccc(S(=O)(=O)O)cc1)c1ccc(S(=O)(=O)O)cc1)Nn1cnc2ccc(S(=O)(=O)N(c3ccc(S(=O)(=O)O)cc3)c3ccc(S(=O)(=O)O)cc3)cc2c1=O | > 100 | > 100 | > 100 | > 100 | > 100 | > 100 | > 100 | > 100 | > 100 |  |  |  |  | 
CCN(CC)CCNc1ccc2nnn3c4ccccc4c(=O)c1c23 |  | 20.4 | 12 | 15.4 | 16.2 |  | 11.9 | 19.6 | 11.7 | 24.2 | 17.2 | 21.8 | 15.1 | 14.3
COC(=O)[C@@H]1Cc2cc(O)c(O)cc2C2(CCN(C)CC2)O1 | > 10 | > 10 | > 10 | > 10 | > 10 | > 10 | > 10 | > 10 | > 10 |  |  |  |  | 
CCN(CC)C(=S)SS(=O)(=O)c1ccccc1[N+](=O)[O-] | 53.9 | > 100 | > 57 | > 53.7 | > 100 | > 100 | > 100 | 34.1 | > 54.8 |  |  |  |  | 
C[C@]12CC/C(=N\OCCN3CCCCC3)C=C1CCC1C2CC[C@@]2(C)C1CC[C@]2(C)O (stereo partly drawn) | 6.71 | 24.8 | 15.7 | 62.8 | 20.9 | 97.2 | 24.8 | 22.5 | 26 |  |  |  |  | 
O=C(CCOS(=O)(=O)CF)N1CCN(C(=O)CCOS(=O)(=O)CF)CC1 | > 100 | > 100 | > 100 | > 100 | > 100 | > 100 | > 56.7 | > 100 | > 100 |  |  |  |  | 
CC(=O)Oc1c(C)c2c(c3ccccc13)OC(C)(C)C2 | 33.2 | 30.3 |  | 35.8 | 38.5 | 60 | 33.1 | 37.3 | 31.9 |  |  |  |  | 
O=C1C(Cl)=C(N2CCN(c3ccccn3)CC2)C(=O)c2ncccc21 | 3.17 | 5.52 | 3.59 | 3.79 | 3.31 | 3.16 | 19.8 | 3.94 | 3.29 |  |  |  |  | 
C=CCn1cnc2c(=O)[nH]c(Nc3ccccc3)nc21 | > 100 | > 100 | > 100 | > 100 | > 100 | > 100 | > 100 | > 100 | > 100 |  |  |  |  | 
CC(=O)Nc1ccc2cc3[nH]c4cc(NC(C)=O)ccc4c3nc2c1 | > 100 | > 100 | > 100 | > 100 | > 100 | > 100 | > 100 | > 100 | > 100 |  |  |  |  | 
COc1ccc(/C=C2/CCS(=O)(=O)c3ccc(C)cc3C2=O)cc1OC | 71.6 | 22.7 | 20.4 | > 100 | 28.4 | 45.1 | 57.2 | > 100 | 9.55 |  |  |  |  | 
O=[N+]([O-])c1nccn1CCCNCCCn1ccnc1[N+](=O)[O-] | > 100 | > 100 | > 100 | > 100 | > 100 | > 100 | > 100 | > 100 | > 100 |  |  |  |  | 
COC(=O)c1cc(C)n(CN(Cc2ccccc2)Cn2nc(C(=O)OC)cc2C)n1 | > 100 | > 100 | > 100 | > 78 | > 78.1 | > 100 | > 100 | > 68.7 | > 100 |  |  |  |  | 
O=C(N/N=C(/COc1cccc(Cl)c1)N=Cc1cccnc1)c1ccncc1 | > 100 | > 100 | > 100 | > 100 | > 100 | > 100 | > 100 | > 100 | 89.7 |  |  |  |  | 
O=C1C(Cl)C(c2cc3cc(Br)ccc3nc2Cl)N1c1c(Cl)cccc1Cl (stereo not drawn) | > 25 | > 25 | 7.96 | > 25 | > 25 | > 25 | > 25 | 10.7 | > 25 |  |  |  |  | 
N#CCCN(CCC#N)c1ccc(C(N=Nc2ccc(Cl)cc2)=Nc2ccc(F)cc2)cc1 | > 100 | > 100 |  | > 100 | > 100 | > 100 | > 100 | > 100 | > 100 |  |  |  |  | 
c1ccc(C2=Nc3cccc4cccc(c34)N2)cc1 | > 85.8 | > 100 | 60 | 39.3 | 40.9 | 21.9 | > 100 | > 100 | 52.7 |  |  |  |  | 
COC(=O)c1c2c(cc3c1CC1(Cc4cc5c(cc4C1)CCC5)C3)CCC2 | > 100 |  | > 100 | > 100 |  | > 100 | > 100 | > 100 | > 100 |  |  |  |  | 
CC[C@@H](/C=C\CCC1(C[C@@H](N)CCC=C(C)C)OCCO1)O[Si](C(C)C)(C(C)C)C(C)C | 34.9 | 31.9 | 18.3 | 51.6 | 27.3 | 48.7 | 34.6 | 34.1 | 28.7 |  |  |  |  | 
CCN(CC)COC(=S)S | > 100 | > 100 | > 100 | 78.1 | > 100 | > 100 | > 90.2 | > 100 | > 100 |  |  |  |  | 
COC1(CC[C@H](C)COC2OC(CO)C(O)C(O)C2O)O[C@H]2C[C@H]3[C@@H]4CC=C5C[C@@H](OC6OC(CO)C(O)C(OC7OC(CO)C(O)C(O)C7O)C6OC6OC(C)C(O)C(O)C6O)CC[C@]5(C)[C@H]4CC[C@]3(C)[C@H]2[C@@H]1C (stereo partly drawn) | 4.24 | > 39.2 | 6.06 | 5.87 | 16.2 | 9.68 | 7.25 | 4.85 | 10.1 |  |  |  |  | 
